Measured values: patent publication US12226450B2, “Peptides and methods for treating disease” (OP-T LLC, priority 2019, dated 2025)
Where no end group is shown, it is not given here.

Experiments:
[1] = test system: CD4+ and CD8+ cells; test: CD4/CD8 ratio in blood of peptide-treated NOD mice by flow cytometry; type: in vivo, mouse; conditions: 25 ug tail vein weekly
Protocol: (§1) Peptides were designed based on the amino acid sequence of mouse CD154 protein (SEQ ID NO:1) in the SwissPro database. […] Weekly after the initial injection, another 25 ug of peptide (or 100 ul of PBS in the case of the Control mice) was injected into the tail vein. At 10 weeks of age, mice were monitored for diabetes, as indicated by a blood glucose level greater than 250 mg/dL for three consecutive days. During this time, blood was also taken from the tail vein, or by sub-mandibular venal puncture, and the level of CD4+ and CD8+ cells determined by flow cytometry using antibodies for CD4 protein and CD8 protein.

[2] = test system: CD3+CD4+CD40+(Th40) splenic cells; test: Inflammatory cytokines in cultured Th40 splenic cells from ApoE−/− mice; type: cell-based, mouse; conditions: overnight culture, varying concentrations, compared to the untreated cells
Protocol: FIG. 24 provides a graph showing that different concentrations of peptide of SEQ ID NO:46 affects or influences levels of IL-2, IFNγ, and IL-17A. In this study, CD3+CD4+CD40+(Th40) splenic cells were purified from ApoE^−/− with cardiovascular disease. The cells were cultured overnight in the absence/presence of varying concentrations of KGYY6 peptide.

[3] = test system: NOD mice; test: Development of diabetes in NOD mice treated with CD154 peptide fragments; type: in vivo, mouse; conditions: 25 ug (1 mg/kg) tail vein weekly from 6 weeks of age; diabetes = blood glucose greater than 250 mg/dL for three consecutive days
Protocol: as §1

[4] = test system: diabetic dogs; test: Safety in treated diabetic dogs: blood counts, chemistry panels, adverse effects; type: in vivo, dog
Protocol: Five diabetic dogs including 4 new onset and 1 long-term, (diagnosis greater than 3 years) were recruited into a test case study. The dogs were enrolled at Colorado State University Veterinary Hospital (CSU-VH), Fort Collins, CO for the study. Each dog was assessed by a Board-Certified Veterinarian. Blood samples were collected from each dog and analyzed by chemistry panels to determine general health, as well as assessed by complete physical examination. The dogs were each confirmed diabetic, blood glucose ranging from 300-600 mg/dl but were generally in good health otherwise. One dog was diagnosed with hypertension, and two dogs had eye problems, partial blindness and the long-term dog was completely blind from diabetes.
Breeds were varied and sizes ranged from 8 to 27 kilos. Four of the dogs had been diagnosed for 3 months or less, 1 dog was diagnosed for 3.5 years. All dogs were receiving daily insulin treatments. The route of administration was IV infusion of SEQ ID NO. 13 over 30 minutes at 2 mg/kg on Days 0, 4, 8 and then weekly thereafter for a total of 8 weeks. The dogs were treated with the dog-sequence (SEQ ID NO: 13—VLRWAPKGYYTISSN); acetate salt form; brought up in sterile PBS for injection; injection was done as a slow infusion over 30 minutes. […] The dog diagnosed for 3.5 years experienced an improvement of time-in-range (percentage of a 24-hour period that blood glucose ranged between 80 and 160) from 10% to 80% for 5 consecutive days in the 5th week and achieved this for the last 3 test weeks. Typical responses in all five dogs was that 3-5 days post treatment improvements in blood glucose occurred. For example, blood glucose would move from 400 to 120, remain stable for 2 days but return to elevated levels. In all the treated dogs, glucose spikes were at lower levels, 300 mg/dl as a high, compared to >500 mg/dl prior to treatment. In fact, prior to treatment, none of the dogs recorded blood glucose levels less than 350. During treatment dogs were at 200 mg/dl or lower the majority of the time and in many cases were at 150 mg/dl or less.
Prior to treatment blood samples were analyzed for blood glucose levels and Th40 cell percentages in peripheral blood. These pre-treatment Th40 cell levels and blood glucose levels can be seen in FIGS. 15, 16, and 17. In FIG. 15, controls are blood samples from test beagles used by CSU-VH and were all confirmed non-diabetic (i.e. not diabetic). […] On day 0, prior to the first treatment, blood was collected from leg vein and analyzed for Th40 cell percentages. […] Samples were analyzed for Th40 cells by flow cytometry. Furthermore, isolated blood was processed to obtain lymphocytes. […] The percentage of CD4+CD40+ as a subset of total CD4+ cells was determined and graphed. […]

[5] = test system: NOD mice; test: Hyperglycemia in diabetic NOD mice treated with KGYY-15; type: in vivo, mouse; conditions: control treatments, blood glucose between 250-400 mg/dl
Protocol: In this study, NOD mice, blood glucose between 250-400 mg/dl were treated with KGYY-15. Control mice were treated with MR1 an anti-CD154 antibody or scrambled 15-mer peptide (SEQ ID NO: 17). KGYY-15 (SEQ ID NO: 11) reduced blood glucose in 57% of mice treated, the controls MR1 and scrambled 15-mer peptide had no effect.

[6] = diabetic dogs, IV infusion 2 mg/kg

CSCC[C@H](NC(=O)[C@@H](NC(=O)[C@H](Cc1ccc(O)cc1)NC(=O)[C@H](Cc1ccc(O)cc1)NC(=O)CNC(=O)[C@H](CCCCN)NC(=O)[C@H](CCCCN)NC(=O)[C@H](C)NC(=O)[C@H](Cc1c[nH]c2ccccc12)NC(=O)[C@H](CCC(N)=O)NC(=O)[C@H](CC(C)C)NC(=O)[C@@H](N)C(C)C)[C@@H](C)O)C(=O)N[C@@H](CCCCN)C(=O)N[C@@H](CO)C(=O)N[C@@H](CC(N)=O)C(=O)O [15-mer peptide, VLQWAKKGYYTMKSN]
compromise of the immune system, as determined by the CD4/CD8 ratio [1]: did not result in compromise of the immune system

AKKGYY (not fully specified (C-terminus)) [KGYY6]
IFNγ [2]: varying degrees of reduction
IL-2 [2]: varying degrees of reduction
IL-17A [2]: varying degrees of reduction

VLQWAKKGYYTMK (not fully specified (C-terminus)) [13-mer peptides]
development of diabetes [3]: significant effects on the development of diabetes

VLRWAPKGYYTISSN [SEQ ID NO: 13, VLRWAPKGYYTISSN]
adverse effects [4, 6]: None of the dogs experienced any adverse effects
chemistry panel numbers [4, 6]: normal
impact on WBC and RBC [4, 6]: no negative impacts
blood chemistry panels versus samples prior to treatment ([4]; each improved from blood samples prior to treatment): normal levels on most parameters

YKNVKQMAYWLTGKS [scrambled 15-mer peptide]
effect on blood glucose [5]: no effect
